According to PubChem BioAssay AID256 (DTP/NCI, 2004):
Toxic doses and inconclusive results are not listed.

System: CD2F1 mice, L1210 leukemia ip, survival T/C
Test: NCI In Vivo Anticancer Drug Screen. Data for tumor model L1210 Leukemia (intraperitoneal) in CD2F1 (CDF1) mice
Details: higher = longer survival
Summary of the method: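 Each value reflects a quotient of treated over vehicle control outcomes in mice with a transplanted tumor.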

[1] = endpoint: mean survival time, dose: 100.0 mg/kg/injection, schedule: Q04DX003 (ip), vehicle: saline with Tween-80
[2] = endpoint: mean survival time, dose: 200.0 mg/kg/injection, schedule: Q04DX003 (ip), vehicle: saline with Tween-80
[3] = endpoint: mean survival time, dose: 400.0 mg/kg/injection, schedule: Q04DX003 (ip), vehicle: saline with Tween-80
[4] = endpoint: mean survival time, dose: 100.0 mg/kg/injection, schedule: Q04DX002 (ip), vehicle: saline with Tween-80
[5] = endpoint: mean survival time, dose: 100.0 mg/kg/injection, schedule: Q01DX009 (ip), vehicle: saline with Tween-80
[6] = endpoint: mean survival time, dose: 200.0 mg/kg/injection, schedule: Q01DX009 (ip), vehicle: saline with Tween-80
[7] = endpoint: mean survival time, dose: 400.0 mg/kg/injection, schedule: Q01DX009 (ip), vehicle: saline with Tween-80
[8] = endpoint: mean survival time, dose: 75.0 mg/kg/injection, schedule: Q01DX001 (ip), vehicle: saline

C[C@@]1(CO)[C@H](O)CC[C@@]2(C)[C@H]1CC[C@H]1C[C@@H]3C[C@@]12CC[C@@]3(O)COC(=O)CN was tested, and the T/C (endpoint: median survival time, dose: 0.2 mg/kg/injection, schedule: Q01DX009 (ip), vehicle: saline + alcohol) was 100 % of control, the T/C (endpoint: median survival time, dose: 0.4 mg/kg/injection, schedule: Q01DX009 (ip), vehicle: saline + alcohol) was 106 % of control and the T/C (endpoint: median survival time, dose: 0.8 mg/kg/injection, schedule: Q01DX009 (ip), vehicle: saline + alcohol) was 107 % of control. The T/C (endpoint: median survival time, dose: 1.6 mg/kg/injection, schedule: Q01DX009 (ip), vehicle: saline + alcohol) was 102 % of control, the T/C (endpoint: median survival time, dose: 5.0 mg/kg/injection, schedule: Q03HX027 (ip), vehicle: saline + alcohol) was 101 % of control and the T/C (endpoint: median survival time, dose: 6.25 mg/kg/injection, schedule: Q01DX009 (ip), vehicle: saline + alcohol) was 105 % of control. For the same molecule, the T/C (endpoint: median survival time, dose: 10.0 mg/kg/injection, schedule: Q03HX027 (ip), vehicle: saline + alcohol) was 109 % of control, the T/C (endpoint: median survival time, dose: 12.5 mg/kg/injection, schedule: Q01DX009 (ip), vehicle: saline + alcohol) was 106 % of control and the T/C (endpoint: median survival time, dose: 20.0 mg/kg/injection, schedule: Q03HX027 (ip), vehicle: saline + alcohol) was 116 % of control. For the same molecule, the T/C (endpoint: median survival time, dose: 25.0 mg/kg/injection, schedule: Q01DX005 (ip), vehicle: saline) was 112 % of control, the T/C (endpoint: median survival time, dose: 25.0 mg/kg/injection, schedule: Q01DX009 (ip), vehicle: saline + alcohol) was 107 % of control and the T/C (endpoint: median survival time, dose: 36.0 mg/kg/injection, schedule: Q01DX005 (ip), vehicle: saline) was 115 % of control. For the same molecule, the T/C (endpoint: median survival time, dose: 36.0 mg/kg/injection, schedule: Q01DX009 (ip), vehicle: saline) was 110 % of control, the T/C (endpoint: median survival time, dose: 50.0 mg/kg/injection, schedule: Q01DX005 (ip), vehicle: saline) was 116 % of control and the T/C (endpoint: median survival time, dose: 50.0 mg/kg/injection, schedule: Q01DX009 (ip), vehicle: saline + alcohol) was 116 % of control. For the same molecule, the T/C (endpoint: median survival time, dose: 60.0 mg/kg/injection, schedule: Q01DX005 (ip), vehicle: saline) was 116 % of control, the T/C (endpoint: median survival time, dose: 60.0 mg/kg/injection, schedule: Q01DX009 (ip), vehicle: saline) was 110 % of control and the T/C (endpoint: median survival time, dose: 100.0 mg/kg/injection, schedule: Q01DX005 (ip), vehicle: saline) was 122 % of control. For the same molecule, the T/C (endpoint: median survival time, dose: 100.0 mg/kg/injection, schedule: Q01DX009 (ip), vehicle: saline) was 151 % of control, the T/C (endpoint: median survival time, dose: 166.6 mg/kg/injection, schedule: Q01DX009 (ip), vehicle: saline) was 153 % of control and the T/C (endpoint: median survival time, dose: 12.5 micrograms/kg/injection, schedule: Q01DX009 (ip), vehicle: saline + alcohol) was 103 % of control. For the same molecule, the T/C (endpoint: median survival time, dose: 25.0 micrograms/kg/injection, schedule: Q01DX009 (ip), vehicle: saline + alcohol) was 103 % of control, the T/C (endpoint: median survival time, dose: 50.0 micrograms/kg/injection, schedule: Q01DX009 (ip), vehicle: saline + alcohol) was 103 % of control and the T/C (endpoint: median survival time, dose: 100.0 micrograms/kg/injection, schedule: Q01DX009 (ip), vehicle: saline + alcohol) was 101 % of control. The T/C (endpoint: median survival time, dose: 200.0 micrograms/kg/injection, schedule: Q01DX009 (ip), vehicle: saline + alcohol) was 102 % of control.

With COc1cc(C)c(Br)c(OC)c1 the T/C [1] was 92 % of control, the T/C [2] was 99 % of control and the T/C [3] was 99 % of control.

In the case of COc1ccc(C(=O)C(=O)c2ccccc2Cl)cc1, the T/C [4] is reported as 98 % of control, the T/C (endpoint: mean survival time, dose: 200.0 mg/kg/injection, schedule: Q04DX002 (ip), vehicle: saline with Tween-80) is reported as 102 % of control and the T/C (endpoint: mean survival time, dose: 400.0 mg/kg/injection, schedule: Q04DX002 (ip), vehicle: saline with Tween-80) is reported as 95 % of control.

With N#Cc1cnoc1N the T/C [5] was 112 % of control, the T/C [6] was 114 % of control and the T/C [7] was 109 % of control.

In the case of O=C1CCCC1=P(c1ccccc1)(c1ccccc1)c1ccccc1, the T/C (endpoint: mean survival time, dose: 100.0 mg/kg/injection, schedule: Q04DX003 (ip), vehicle: other) is reported as 99 % of control and the T/C (endpoint: mean survival time, dose: 200.0 mg/kg/injection, schedule: Q04DX003 (ip), vehicle: other) is reported as 90 % of control.

For COc1ccc2c(c1C)CN1CCc3cc4c(cc3C1=C2)OCO4, the T/C (endpoint: mean survival time, dose: 75.0 mg/kg/injection, schedule: Q01DX001 (ip), vehicle: other) was 94 % of control, the T/C (endpoint: mean survival time, dose: 150.0 mg/kg/injection, schedule: Q01DX001 (ip), vehicle: other) was 88 % of control and the T/C (endpoint: mean survival time, dose: 300.0 mg/kg/injection, schedule: Q01DX001 (ip), vehicle: other) was 88 % of control.

With FC(F)(F)C(Cl)Br (stereo not given) the T/C [5] was 98 % of control, the T/C (endpoint: mean survival time, dose: 100.0 mg/kg/injection, schedule: Q01DX009 (ip), vehicle: saline) was 97 % of control and the T/C [6] was 96 % of control. The T/C (endpoint: mean survival time, dose: 200.0 mg/kg/injection, schedule: Q01DX009 (ip), vehicle: saline) was 98 % of control, the T/C [7] was 95 % of control and the T/C (endpoint: mean survival time, dose: 400.0 mg/kg/injection, schedule: Q01DX009 (ip), vehicle: saline) was 103 % of control.

N#C/C(=C\c1cc(Cl)ccc1O)C1CCC([N+](=O)[O-])CC1 (stereo not given) was tested, and the T/C [5] was 86 % of control, the T/C [6] was 93 % of control and the T/C [7] was 91 % of control.

Nc1ccc2scnc2c1 was tested, and the T/C [1] was 108 % of control, the T/C [2] was 96 % of control and the T/C [3] was 101 % of control.

In the case of CCOC(=O)Nc1cc(=O)c([N+](=O)[O-])c(NC(=O)OCC)[nH]1, the T/C (endpoint: mean survival time, dose: 75.0 mg/kg/injection, schedule: Q04DX003 (ip), vehicle: saline) is reported as 92 % of control, the T/C (endpoint: mean survival time, dose: 150.0 mg/kg/injection, schedule: Q04DX003 (ip), vehicle: saline) is reported as 97 % of control and the T/C (endpoint: mean survival time, dose: 300.0 mg/kg/injection, schedule: Q04DX003 (ip), vehicle: saline) is reported as 101 % of control.

CN(N)C1CCCCC1 was tested, and the T/C [8] was 100 % of control and the T/C (endpoint: mean survival time, dose: 150.0 mg/kg/injection, schedule: Q01DX001 (ip), vehicle: saline) was 100 % of control.

Cc1ccc2ncccc2c1[N+](=O)[O-] was tested, and the T/C [1] was 101 % of control and the T/C [2] was 95 % of control.

Cc1cc(Cl)nc(N)n1 was tested, and the T/C (endpoint: mean survival time, dose: 100.0 mg/kg/injection, schedule: Q04DX002 (ip), vehicle: Klucel (hydroxypropylcellulose) (HPC)) was 90 % of control and the T/C (endpoint: mean survival time, dose: 200.0 mg/kg/injection, schedule: Q04DX002 (ip), vehicle: Klucel (hydroxypropylcellulose) (HPC)) was 86 % of control.

CCN(CC)C(C)COC(=O)c1ccc(N)cc1 (stereo not given) was tested, and the T/C (endpoint: mean survival time, dose: 12.5 mg/kg/injection, schedule: Q04DX003 (ip), vehicle: saline) was 103 % of control, the T/C (endpoint: mean survival time, dose: 25.0 mg/kg/injection, schedule: Q04DX003 (ip), vehicle: saline) was 103 % of control and the T/C (endpoint: mean survival time, dose: 50.0 mg/kg/injection, schedule: Q04DX003 (ip), vehicle: saline) was 111 % of control.

With Brc1cccc2c1CCCC2 the T/C [1] was 97 % of control, the T/C [2] was 95 % of control and the T/C [3] was 103 % of control.

CCCCN(CCCC)CCC(=O)OCC was tested, and the T/C [5] was 101 % of control, the T/C [6] was 95 % of control and the T/C [7] was 112 % of control.

CSc1sc2cc([N+](=O)[O-])ccc2[n+]1C was tested, and the T/C [8] was 103 % of control.

For NNc1ccccc1F, the T/C (endpoint: mean survival time, dose: 25.0 mg/kg/injection, schedule: Q04DX002 (ip), vehicle: saline with Tween-80) was 97 % of control, the T/C (endpoint: mean survival time, dose: 50.0 mg/kg/injection, schedule: Q04DX002 (ip), vehicle: saline with Tween-80) was 90 % of control and the T/C [4] was 93 % of control. For the same molecule, the T/C (endpoint: mean survival time, dose: 100.0 mg/kg/injection, schedule: Q04DX003 (ip), vehicle: saline sonified) was 87 % of control.

For Cc1ccc2c(/C=C/c3ccc(N(C)C)cc3)ccnc2c1, the T/C (endpoint: mean survival time, dose: 100.0 mg/kg/injection, schedule: Q04DX003 (ip), vehicle: Klucel (hydroxypropylcellulose) (HPC)) was 93 % of control, the T/C (endpoint: mean survival time, dose: 200.0 mg/kg/injection, schedule: Q04DX003 (ip), vehicle: Klucel (hydroxypropylcellulose) (HPC)) was 104 % of control and the T/C (endpoint: mean survival time, dose: 400.0 mg/kg/injection, schedule: Q04DX003 (ip), vehicle: Klucel (hydroxypropylcellulose) (HPC)) was 116 % of control.

For CCOc1ccc(-n2c(O)c(N=Nc3ccccc3OC)c(=O)n(-c3ccc(OC)cc3)c2=S)cc1, the T/C (endpoint: mean survival time, dose: 100.0 mg/kg/injection, schedule: Q01DX001 (ip), vehicle: saline with Tween-80) was 101 % of control, the T/C (endpoint: mean survival time, dose: 200.0 mg/kg/injection, schedule: Q01DX001 (ip), vehicle: saline with Tween-80) was 95 % of control and the T/C (endpoint: mean survival time, dose: 400.0 mg/kg/injection, schedule: Q01DX001 (ip), vehicle: saline with Tween-80) was 94 % of control.
